The subject of data set [1] is elderly patient with a sleep disorder. In words: Example 1: person with sleep disturbance, oral squalamine (Kenterin), sleep diary and I-button wrist temperature. It is filed as in vivo, human. Conditions: for % Change in Hours: 125 qod. As to the method:
An elderly patient with a sleep disorder was treated with squalamine to determine the efficacy of the drug for treating sleep disturbances. The patient was a person with a 10 year history of sleep disturbance and a history of constipation, anxiety, and anosmia for as long as they could remember. Their sleep was profoundly disturbed: they had difficulty falling asleep, awoke 3-4 times during the night, had vivid dreams and nightmares, spoke and screamed out loud during their sleep (REM-behavior disorder, RBD), often saw “apparitions” or people in the room (e.g., a cook in a top hat, priests and angels dressed in white). They slept with a night light on in an attempt to minimize these occurrences.
The patient was treated with oral squalamine (Kenterin™) starting at 100 mg qd and increasing to 200 mg qd. Sleep was monitored indirectly with the use of a temperature sensor (I-button) mounted on a wristband. The sensor was programed to record skin temperature at the wrist every 15 minutes 24 hrs a day. Data were downloaded every few weeks.
In other words, as the dose is increased, the hours of sleep increase, and as the dose was decreased, the hours of sleep decreased. The effect was immediate. Shown in FIG. 2 is the hours of sleep resulting following the following dosing schedule for squalamine: (1) 100 mg q.d., (2) 150 mg q.d., (3) 200 mg q.d., (4) 125 mg every third day, (5) 100 mg every third day, and (6) 125 mg q.o.d.
In other words, the patient was falling asleep more easily. […] Thus, not only does squalamine decrease delay in sleep onset and increase total sleep time, but it also has an effect on RBD and hallucinations, both of which occur as a result of Circadian rhythm dysfunction.

For data set [2], the system named is colons from PD mice. In words: Isolated colon motility, PD mice (human αSynuclein gene). The arrangement: species or system mouse. An excerpt: Parkinson's disease is associated with varying degrees of constipation, typically beginning decades before diagnosis, and all too often has a profound negative impact on quality of life. It is believed that the ENS in PD is damaged earlier but by the same processes that damage the neurons of the CNS. In our clinical experience oral administration to several individuals with advanced Parkinson's disease corrected long standing constipation within days of initiation of treatment. We explored whether the human experience could be reproduced in the mouse. In the experiments illustrated below studies of colonic motility were conducted using organs from WT (1 yr old FVB/NJ) or PD mice, in which the murine αSynuclein gene has been excised and replaced by several copies of the human αSynuclein gene driven by the normal murine promoter.
The isolated colon from the PD strain presents a more sluggish peristaltic wave than that from the WT animal (black columns).

Data set [3] relates to patients with PD and constipation. Conditions: in vivo.
Procedure: In Stage 2, 34 patients were evaluated. […] This dose was then maintained (“fixed dose”) for an additional 3-5 days. After the “fixed dose”, these patients were randomly assigned to either continued treatment at that dose or to a matching placebo, for an additional 4-6 days prior to a 2-week wash-out.
A second cohort of 19 patients received squalamine (ENT-01) escalating from 100 mg/day to a maximum of 250 mg/day without subsequent randomization to squalamine (ENT-01) or placebo. Criteria for dose selection and efficacy were identical to those used in the previous cohort.
(§1) Adverse events were coded using the current version of MedDRA. Severity of AEs were assessed by investigators according to CTCAE (v4.03): Grade 1 is labeled as Mild, Grade 2 as Moderate, and Grade 3 and above as Severe. […] The number (percentage) of subjects who experienced an AE during escalation and fixed dosing periods were summarized by dose level and overall for each stage. The denominator for calculating the percentages were based on the number of subjects ever exposed to each dose and overall.
Data set [4] has as its system patients with PD. In words: Phase 2 trial Stage 2: sleep diary (total sleep time, arm or leg thrashing / RBD). It is filed as in vivo, human. As to the method: FIG. 18 is a chart of total sleep time in relation to squalamine dose. Total sleep time was obtained from the sleep diary by subtracting awake time during the night from total time spent in bed. Total sleep time per night was logged for each patient at baseline, each dosing period and at washout, and the means were determined. The light grey bar represents the baseline value for each cohort at a given dose level and the dark grey bar represents the value for the same cohort at the stated dose of squalamine (ENT-01; Kenterin™). The number of patients represented at each value are: Baseline, 33; 75 mg, 21; 100 mg, 28; 125 mg, 18; 150 mg, 15; 175 mg, 12; 200 mg, 7; 225 mg, 3; 250 mg, 2; washout, 33. P values were as follows: 75 mg, p=0.4; 100 mg, p=0.1; 125 mg, p=0.3; 150 mg, p=0.07; 175 mg, p=0.03; 200 mg, p=0.3; 225 mg, p=0.5; 250 mg, p=0.3; wash-out, p=0.04 (paired t test).
The frequency of arm or leg thrashing reported in the sleep diary diminished progressively from 2.2 episodes/week at baseline to 0 at maximal dose.
(5) Sleep Diary (participants completed a sleep diary on a daily basis throughout the study. The diaries included time into bed and estimated time to sleep as well as wake time and duration during the night.);
Exploratory end-points, in addition to constipation, included for example, (i) depression assessed using the Beck Depression Inventory (BDI-II) (Steer et al. 2000) and Unified Parkinson's Disease Rating Scale (UPDRS); (ii) cognition assessed using the Mini Mental State Examination (MMSE) (Palsteia et al. 2018), Unified Parkinson's Disease Rating Scale (UPDRS), and Trail Making Test (TMT); (iii) sleep and REM-behavior disorder (RBD) using a daily sleep diary, I-Button Temperature Assessment, a REM sleep behavior disorder (RBD) questionnaire (RBDQ) (Stiasny-Kolster et al. 2007), and the UPDRS; (iv) hallucinations assessed using the PD hallucinations questionnaire (PDHQ) (Papapetropoulos et al. 2008), the UPDRS, and direct questioning; (v) fatigue using the Parkinson's Disease Fatigue Scale (PFS-16) and the UPDRS; (vi) motor functions using the UPDRS; and (vii) non-motor functions using the UPDRS.

Data set [5] concerns patients with PD and constipation. Conditions: in vivo. The source holds these as a separate data set.
Procedure: In Stage 1, ten (10) PD patients received a single escalating dose of squalamine (ENT-01) every 3-7 days beginning at 25 mg and continuing up to 200 mg or the limit of tolerability, followed by 2-weeks of wash-out. Duration of this part of the trial was 22-57 days. The 10 subjects in the sentinel group were assigned to Cohort 1 and participated in 8 single dosing periods. Tolerability limits included diarrhea or vomiting.
Each dose period was staggered, so that subjects 1-2 were administered a single dose of the drug at the lowest dose of 25 mg. Once 24 hours have elapsed, and provided there are no safety concerns, the patient was sent home and brought back on day 4-8 for the next dose. During the days the subjects are home, they completed the daily diaries and e-mailed them to the study coordinators. Subjects 3-10 were dosed after the first 2 subjects have been observed for 72 hours, i.e. on Day 4. Subjects 1-2 were also brought back on Day 4-8 and given a single dose of 50 mg. Once another 24 hours have elapsed and provided there are no safety concerns, the patients were all sent home and instructed to return on Day 7 for the next dosing level. This single dosing regimen was continued until each subject was given a single dose of 200 mg or has reached a dose limiting toxicity (DLT). DLT was the dose which induces repeated vomiting, diarrhea, abdominal pain or symptomatic postural hypotension within 24 hours of dosing.
as §1
A short description of data set [6]: Preclinical oral studies in dogs (bioavailability, tolerability).
Where [7] appears, read: 100 mg q3d, days 81-83, daily values and mean.
[8] abbreviates: 100 mg q3d, days 81-83, daily values and mean, mean.
Setting [9] is: 150 mg q3d, days 105-111, daily values and mean.
The mark [10] stands for this setting: 150 mg q3d, days 105-111, daily values and mean, mean.
The mark [11] stands for this setting: 150 mg qod, days 100-104, daily values and mean.
[12] abbreviates: 150 mg qod, days 100-104, daily values and mean, mean.
Where [13] appears, read: days 53-55: 175/200 mg, daily values and Mean 200.
Where [14] appears, read: days 53-55: 175/200 mg, daily values and Mean 200, mean.

Structures are written as SMILES. Values joined by “and” are separate entries in the source; they are usually repeats but may differ in a detail not shown here. Equal values may be shown once. Read-outs that look alike come from different tables or passages of the source.

Regarding `CC(C)[C@@H](CC[C@@H](C)[C@H]1CC[C@H]2[C@@H]3[C@H](O)C[C@H]4C[C@@H](NCCCNCCCCN)CC[C@]4(C)[C@H]3CC[C@]12C)OS(=O)(=O)O` [squalamine], the Delay was 30 min in data set [1] (setting [7]); 20 min and 30 min in data set [1] (125 mg q3d, days 69-80, daily values and mean); 25 min in data set [1] (125 mg q3d, days 69-80, daily values and mean, mean); 10 min and 15 min and 20 min in data set [1] (setting [9]); 14 min in data set [1] (setting [10]); 15 min and 20 min in data set [1] (setting [11]). The Delay in data set [1] (setting [12]) came to 17 min; in data set [1] (days 53-55: 175 mg (day 53), 200 mg (days 54-55), daily values and Mean 200), 20 min. The Fragments awake is 40 min and 30 min in data set [1] (setting [7]); 36 min in data set [1] (setting [8]); 30 min and 20 min in data set [1] (after STOP, days 62-68, daily values and mean); 15 min and 30 min in data set [1] (setting [13]); 20 min in data set [1] (setting [14]). Further, the Total hrs sleep was 6.75 h and 7 h in data set [1] (setting [7]); 6.8 h in data set [1] (setting [8]); 10 h and 9.50 h and 8.75 h and 9.75 h and 8 h in data set [1] (setting [9]); 9.3 h in data set [1] (setting [10]); 9 h and 8.5 h and 7.75 h and 10 h and 9.5 h in data set [1] (setting [11]); 8.95 h in data set [1] (setting [12]). The Total hrs sleep was 7.9 h in data set [1] (100 qd (mg), pre (0) 7.5); 8.7 h in data set [1] (125 qod (mg)); 8.8 h in data set [1] (150 qd (mg)); 9.1 h in data set [1] (200 qd (mg), baseline 7.5); 7.0 h in data set [1] (Post (0), after discontinuation of squalamine); 9.0 h and 9.25 h in data set [1] (setting [13]). The Total hrs sleep came to 9.1 h in data set [1] (setting [14]); 4.5 h in data set [1] (off K, days 112-135, daily values and mean). The “% Change in Hours (from base)” value in data set [1] (100 qd) is “+5.3%”; in data set [1] (150 qd), “+17.3%”; in data set [1] (Post (0)), −6.7%. Also, the “% Change in Hours” value in data set [1] (from initial pre(0)) is recorded as “+16% from initial pre(0);”; in data set [1] (from post (0)) it was “+24.3% from post (0)”. In data set [1] (after an appropriate dose of squalamine), the “diurnal rhythm (I-button recording, FIG. 7)” value was “restored almost immediately”. The “diurnal rhythmicity (I-button, periodogram)” value in data set [1] (after intermittent treatment for several months) is recorded as “some diurnal rhythmicity was restored”. Further, the “circadian rhythm (I-button, periodogram)” value in data set [1] (after the first week of treatment) is on record as “still absent”. Besides, in data set [1] (on treatment, reappeared when medication was discontinued), the “RBD (vivid dreams and nightmares) and frank visual hallucinations” value is “disappeared on treatment”. For the same compound, in data set [2] (FIG. 14B), the “speed of the colonic peristaltic wave” value was “normalizing the PD colon to that of the unstimulated WT mouse”. Also, the “force of peristaltic contractions” value in data set [2] (squalamine added to lumen, FIG. 14A) is reported as “increases the force of contractions”.
Take `CC(C)[C@@H](CC[C@@H](C)[C@H]1CC[C@H]2[C@@H]3[C@H](O)C[C@H]4C[C@@H](NCCCNCCCCN)CC[C@]4(C)[C@H]3CC[C@]12C)OS(=O)(=O)O` (single isomer, unassigned; ent-01) [ENT-01]: the “Eye infection, Moderate” value in data set [3] is listed as 0 n, %; in data set [5] it was 0 n, %. The “increase of total sleep time” value in data set [4] (250 mg vs baseline) is 18%. Further, the Total sleep time is 8.4 h in data set [4] (at 250 mg, baseline 7.1) and “consistently higher than baseline” in data set [4] (beyond 125 mg). The “improvement of arm or leg thrashing frequency” value in data set [4] (at maximal dose vs baseline) is 100%. Also, the “frequency of arm or leg thrashing reported in the sleep diary” value in data set [4] (at maximal dose, baseline 2.2) is recorded as 0 episodes/week. Further, the tolerability entry in data set [6] is on record as “well tolerated”. In addition, in data set [6] (preclinical studies), the oral bioavailability result was “about 0.1%”.

The record behind these values is patent US11083735B2, “Methods for treating sleep disorders, sleep disturbances, and related symptoms using aminosterol compositions” (Enterin, Inc., priority 2017, dated 2021).
